Source: patent publication US20070135338A1, “Human GLP-1 mimetibodies, compositions, methods and uses” (priority 2004, published 2007)

Key:
normal dogs = assay: Gastric emptying in normal dogs; assay type: in vivo, beagle dogs; conditions: lidamidine 0.63 mg/kg subcutaneously 60 minutes before the meal, GLP-1 MMB 0.1 mg/kg intravenously 15 minutes before the meal
Procedure: GLP-1 MMB delays gastric emptying in normal dogs. A gastric cannula was surgically implanted into female beagle dogs (10-15 kg) under general anesthesia and allowed-to recover for at least 2 weeks. Dogs were fasted for 24 hours after which water was freely available. The gastric cannula was opened and gastric juice and food remnants were removed with 40-50 ml of lukewarm water. Groups of six dogs were dosed subcutaneously with lidamidine, an alpha2 agonist (0.63 mg/kg), 60 minutes before the meal, a positive control for delay of gastric emptying. Dogs dosed with the vehicle control or GLP-1 MMB (0.1 mg/kg) were dosed intravenously in the cephalic vein 15 minutes before the meal. Five minutes before the meal, the gastric cannula was opened to determine the amount of fluid present in stomach for baseline value and fluid was promptly reintroduced. […] Glucose concentrations were evaluated for collected samples and used to determine the absolute amount of glucose remaining in the stomach at each time point. The percentage of glucose retained in the stomach was determined from the starting value and the concentration of glucose at each time point and plotted as a function of time. The time at which 50% of the gastric contents were retained was determined by fitting of the curves to a single exponential.

[1] = administered subcutaneously; cited from earlier work
GLP-1R = biological target: T1, GLP-1R (Homo sapiens, UniProt P43220); assay: FACS binding assay, HEK293 cells over-expressing the GLP-1R; conditions: 20 nM, 2 hours at 4° C., flow cytometry
T1 construct: expressed in transfected cells; host or cells: HEK293
T1 sequence (P43220 24-463, species assumed): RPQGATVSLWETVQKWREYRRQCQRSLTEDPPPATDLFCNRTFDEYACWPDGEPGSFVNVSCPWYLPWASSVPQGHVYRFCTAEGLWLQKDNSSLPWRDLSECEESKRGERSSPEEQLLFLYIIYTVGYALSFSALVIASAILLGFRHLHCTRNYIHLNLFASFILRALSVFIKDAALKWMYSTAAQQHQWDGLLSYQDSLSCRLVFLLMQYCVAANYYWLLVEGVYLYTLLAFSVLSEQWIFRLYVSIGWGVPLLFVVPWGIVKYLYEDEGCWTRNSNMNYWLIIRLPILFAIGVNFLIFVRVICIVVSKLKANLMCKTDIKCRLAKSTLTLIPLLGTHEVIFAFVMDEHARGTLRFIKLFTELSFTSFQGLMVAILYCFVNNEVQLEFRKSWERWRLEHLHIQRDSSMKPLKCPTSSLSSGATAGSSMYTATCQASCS
Procedure: FACS Binding Assay. The activity of GLP-1 mimetibody was tested in an in vitro FACS binding assay. To determine whether the GLP-1 MMB binds the GLP-1R, HEK293 cells (1×10^6 cells) over-expressing the GLP-1R were incubated with GLP-1 MMB (20 nM) for 2 hours at 4° C. The cells were washed, and a fluorescently labeled secondary […] detection antibody (1 μg/mL goat anti-human IgG, Fc gamma specific) was added for 30 minutes at 4° C. The fluorescence intensity of the cells was monitored via flow cytometry.

control HEK293 cells = assay: FACS binding assay, control HEK293 cells; conditions: flow cytometry
DPP-IV = biological target: T2, DPP-IV (Homo sapiens, UniProt P27487); assay: DPP-IV cleavage assay; assay type: in vitro ADME; conditions: 1.2 nM, DPP-IV 1 μg/mL, room temperature, 0-40 minutes
T2 construct: purchased R&D Systems
T2 sequence (P27487 whole entry, species assumed): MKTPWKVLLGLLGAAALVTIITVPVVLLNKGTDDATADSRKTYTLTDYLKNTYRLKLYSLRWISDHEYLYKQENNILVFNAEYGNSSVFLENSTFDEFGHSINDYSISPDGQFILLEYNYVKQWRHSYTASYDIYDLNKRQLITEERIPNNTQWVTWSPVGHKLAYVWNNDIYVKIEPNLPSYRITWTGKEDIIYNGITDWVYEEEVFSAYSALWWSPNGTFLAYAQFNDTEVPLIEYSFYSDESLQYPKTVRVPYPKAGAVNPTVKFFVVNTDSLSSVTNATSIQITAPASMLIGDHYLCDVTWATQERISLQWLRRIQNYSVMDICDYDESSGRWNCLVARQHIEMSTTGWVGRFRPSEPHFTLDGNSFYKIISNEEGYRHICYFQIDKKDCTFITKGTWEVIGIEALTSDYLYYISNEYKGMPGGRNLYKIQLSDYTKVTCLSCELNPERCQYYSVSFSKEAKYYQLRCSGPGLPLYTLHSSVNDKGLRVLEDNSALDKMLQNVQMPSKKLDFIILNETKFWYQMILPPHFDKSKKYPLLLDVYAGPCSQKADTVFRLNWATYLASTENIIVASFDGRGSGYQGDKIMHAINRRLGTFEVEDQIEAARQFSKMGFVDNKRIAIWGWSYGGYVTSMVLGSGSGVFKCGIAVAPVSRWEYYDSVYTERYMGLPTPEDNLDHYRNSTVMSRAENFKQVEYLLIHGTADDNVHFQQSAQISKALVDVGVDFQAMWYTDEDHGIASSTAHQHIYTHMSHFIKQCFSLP
Procedure: DPP-IV cleavage assay. Since GLP-1 is rapidly inactivated by DPP-IV, an in vitro assay was established to quantitate intact (i.e. uncleaved) GLP-1 MMB. Briefly, GLP-1 MMB or peptide (1.2 nM) was incubated at room temperature with DPP-IV (1 μg/mL, R&D Systems). After various times (0, 5, 10, 15, 20, 30, 40 minutes), a DPP-IV inhibitor (100 μM, Linco) was added to quench the reaction. The amount of intact GLP-1 MMB or peptide was measured using the GLP-1 Active ELISA (Linco) and the GLP-1 MMB or peptides for the respective standard curves.

[2] = Human serum stability assay; assay type: in vitro ADME; conditions: 30 nM, 37° C., GLP-1 Active ELISA
Procedure: Human Serum stability assay. The stability of the GLP-1 MMB in serum was also measured to ensure that other serum proteases were not able to cleave and inactivate the GLP-1 MMB. Briefly, GLP1 peptide or the GLP1 MMB (30 nM) was incubated in human serum at 37° C. After various times, the reactions were quenched with a DPP-IV inhibitor (100 μM, Linco), and the samples were analyzed using the GLP-1 Active ELISA from Linco.

diabetic db/db mice [3] = assay: Oral glucose tolerance test in diabetic db/db mice, single dose; assay type: in vivo; conditions: subcutaneous 0.02 to 2 mg/kg, all doses tested, 1.0 mg/g glucose
Procedure: Effects of GLP-1 MMB during an oral glucose tolerance test in diabetic mice. Eight-week old diabetic db/db mice were fasted for 6 hours prior to a subcutaneous injection of the GLP-1 MMB (0.02 to 2 mg/kg). Following dosing, mice were fasted for an additional six hours and a baseline fasting blood glucose was measured. At t=0, mice were given an oral gavage of 1.0 mg/g glucose, and blood glucose was measured at various times.

diabetic db/db mice [4] = assay: Fasting blood glucose during chronic dosing to diabetic db/db mice; assay type: in vivo; conditions: 1 mg/kg subcutaneously daily for six weeks
Procedure: Effects of GLP-1 MMB on fasting blood glucose during chronic dosing to diabetic mice. Ten-week old diabetic db/db mice were subcutaneously dosed daily with vehicle or GLP-1 MMB (1 mg/kg) for six weeks. Fasting blood glucose was measured twice per week during the course of the study.

diabetic db/db mice [5] = assay: Oral glucose tolerance test after chronic dosing to diabetic db/db mice; assay type: in vivo; conditions: 1 mg/kg daily
Procedure: Effects of GLP-1 MMB on oral glucose tolerance test after chronic dosing to diabetic mice. As in Example 11, ten-week old diabetic db/db mice were dosed daily with vehicle or GLP-1 MMB (1 mg/kg) for six weeks. After 40 days of dosing, the mice were given an oral glucose tolerance test. Briefly, at t=0, mice were given an oral gavage of 1.0 mg/g glucose, and blood glucose was measured at various times.

diabetic db/db mice [6] = assay: HbA1c after chronic dosing to diabetic db/db mice; assay type: in vivo; conditions: 1 mg/kg daily for six weeks
Procedure: Effects of GLP-1 MMB on reducing HbAlc after chronic dosing to diabetic mice. As in Examples 11 and 12, ten-week old diabetic db/db mice were dosed daily with vehicle or GLP-1 MMB (1 mg/kg) for six weeks. Before and after six-weeks of dosing, whole blood samples were taken and analyzed for percent HbA1c.

[7] = tested on: normal cynomolgus monkeys; assay: Oral glucose tolerance test in normal cynomolgus monkeys; assay type: in vivo; conditions: single dose 1 mg/kg
Procedure: Effects of GLP-1 MMB on an oral glucose tolerance test in normal cynomolgus monkeys. An oral glucose tolerance test (OGTT) was done in normal cynomolgus monkeys prior to and six days after a single dose of the GLP-1 MMB (1 mg/kg). Briefly, at t=0, monkeys were given an oral gavage of 2.0 mg/g glucose, and blood glucose was measured at various times.

diabetic mice (db/db) = assay: Insulin staining in islets of diabetic mice (db/db) after a single dose; assay type: in vivo; conditions: single subcutaneous dose 1.5 mg/kg, four weeks later
Procedure: Effects of GLP-1 MMB on insulin staining in islets of diabetic mice (db/db) after a single dose. Twelve-week old diabetic mice (db/db) were treated with a single subcutaneous dose of the GLP-1 MMB (1.5 mg/kg), and the pancreata were harvested four weeks later. The pancreata were sectioned and stained for the presence of insulin.

diet induced obese mice = assay: Oral glucose tolerance test in diet induced obese mice; assay type: in vivo
Procedure: GLP-1 MMB lowers blood glucose following an oral glucose tolerance test (OGTT) in diet induced obese mice. To develop a murine model of diet induced obesity, mice were maintained on a high fat diet for at least 27 weeks. Mice became obese and were determined to be diabetic when fasting blood glucose values exceeded 120 mg/dl. To evaluate the effect of GLP-1 MMB therapy on postprandial blood glucose levels, diet induced obese mice were fasted overnight and dosed subcutaneously with 0.02, 0.2, or 2 mg/kg GLP-1 MMB or vehicle control. Six hours after dosing, mice were given a 1.5 mg/g gastric gavage of glucose. Blood glucose levels were determined prior to MMB dosing, at t =0, 15, 30, 60, 90, 120, 150, and 180 minutes using tail vein blood.

db/db mice = assay: Intraperitoneal glucose tolerance test (IPGTT) in db/db mice; assay type: in vivo
Procedure: GLP-1 MMB lowers blood glucose in an intraperitoneal glucose tolerance test (IPGTT) in db/db mice. Male db/db mice of approximately 13-15 weeks of age were randomized into treatment groups of six mice based on fasting blood glucose levels. Mice were dosed with either 0.02 mg/kg or 0.1 mg/kg of GLP- I MMB or 0.1 mg/kg of negative control MMB six hours prior to the glucose tolerance test. Five minutes before the glucose tolerance test, a glucose measurement was taken with a hand held glucometer from tail vein blood. Mice were then dosed intraperitoneally with 1 mg/g of D-glucose and blood glucose levels were monitored at 10 min,20 min,30 min, 60 min, 90 min, 120 min, 150 min, and 180 min. […] Additional groups of animals treated in the same manner were sacrificed for measurement of insulin levels at t=10 minutes.

[8] = tested on: patients with type 2 diabetes; conditions: type 2 diabetic patients, cited from earlier work
RINm cells = assay: Insulin secretion in RINm cells (ELISA); assay type: cell-based; conditions: peptides 0-5 nM, mimetibodies 5 or 50 nM
Procedure: GLP-1 MMB causes insulin secretion in RINm cells. To test the effect of GLP-1 MMB in insulin secretion, RINm cells were treated with increasing concentrations of GLP-1 (7-36) peptide (0-5 nM), exendin-4 peptide (0-5 nM), or various GLP-1 mimetibodies (5 or 50 nM) and the amount of insulin secreted was measured via ELISA. All GLP-1 MMBs tested had activities in stimulating insulin secretion in RINm cells (FIG. 6).

In the case of `CN=C(N)NC(=O)Nc1c(C)cccc1C` [lidamidine, reference compound], the “time in which 50% of the gastric contents were emptied” value (normal dogs) is reported as 30.60 ± 6.47 min.
For GLP-1 (7-36) amide: GLP-1 (7-36) amide, the time action [1] is given as “about 50 minutes”.
With “GLP-1 MMB: GLP-1 mimetibody construct (SEQ ID NO:2): GLP-1 peptide (7-36), flexible linker, J region, IgG1 hinge, CH2 and CH3” the “binding to HEK293 cells over-expressing the GLP-1R” value (GLP-1R) was “binds”, the “binding to control HEK293 cells” value (control HEK293 cells) was “does not bind” and the “resistance to cleavage by DPP-IV relative to the GLP-1 peptide” value (DPP-IV) was “significantly more resistant”. The “stability in human serum” value [2] was “stable in human serum for 24 hours”, the “glucose excursion during an oral glucose tolerance test” value (diabetic db/db mice [3]) was “effective in lowering the glucose excursion” and the “difference in fasting blood glucose, control vs treated, by six weeks” value (diabetic db/db mice [4]) was “more than 200 mg/dL”. For the same compound, the “fasting blood glucose by six weeks” value (diabetic db/db mice [4]) was 221 mg/dL, the “glucose excursion during an oral glucose tolerance test after 40 days of dosing” value (diabetic db/db mice [5]) was “effective in lowering the glucose excursion” and the “increase of HbA1C during the six-week period” value (diabetic db/db mice [6]) was 109%. The “insulin levels in OGTT six days after dosing” value [7] was “significantly increased”, the “blood glucose levels in OGTT six days after dosing” value ([7]; 2.0 mg/g glucose) was “significantly reduced” and the “insulin staining in pancreata relative to control animals” value (diabetic mice (db/db)) was “significantly more insulin staining”. The “time in which 50% of the gastric contents were emptied” value (normal dogs) was 59.23 ± 14.46 min, the “glucose areas under the curve between t=0 and t=180” value (diet induced obese mice; all doses) was “significant lowering” and the “fasting blood glucose values at t=0 and all subsequent time points” value (diet induced obese mice; subcutaneous 0.02, 0.2, or 2 mg/kg, six hours before 1.5 mg/g glucose) was “dose dependent decrease”. For the same compound, the “amount of insulin released at t=10 minutes” value (db/db mice; 0.02 mg/kg or 0.1 mg/kg) was “dose dependent increase” and the “blood glucose levels over the full time course of IPGTT” value (db/db mice; 0.02 mg/kg or 0.1 mg/kg six hours prior, 1 mg/g D-glucose) was “significant lower”.
For “GLP-1: Glucagon like peptide-1 given as six-week infusion in the clinic (HAEGTFTSDVSSYLEGQAAKEFIAWLVKGRG)”, the “fasting and 8-hour mean plasma glucose levels” value ([8]; six-week infusion) is listed as “lowered” and the β-cell function [8] is listed as “improvement in β-cell function”.
In the case of “exendin-4 peptide: exendin-4 peptide, comparator in insulin secretion assay”, the “insulin secretion in RINm cells” value (RINm cells) is reported as “stimulates insulin release”.
